Test results as given in PubChem BioAssay (NCI).
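How tested: cells in 96-well plates exposed to compound for 48 hours at five concentrations. TGI: total growth inhibition.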

The compounds below were run on UACC-62 melanoma (assay: inhibition of tumour cell growth, NCI panel, 48 h).

Work on `O=C1NC(=S)S/C1=C/c1ccco1` yielded a TGI greater than 100 µM.

What follows are compounds tested on UACC-257 melanoma (assay: inhibition of tumour cell growth, NCI panel, 48 h).

`Cc1c(-c2nc(N)nc(C3CC3)c2C)nc(N)nc1C1CC1` and `COc1ccc2c(c1)[C@@]13CCN4CC5=CCO[C@H]6CC(=O)N2[C@H]1[C@H]6[C@H]5C[C@H]43` cannot be ordered by TGI: greater than 100 µM for the first, greater than 100 µM for the second.

Compared with `CC(C)(C)OC(=O)c1ccc(NCc2cc(O)ccc2O)cc1`, `NC(=O)NC(=NCc1ccccc1)NCc1ccccc1` is higher in TGI: 14.9 µM for the first, greater than 100 µM for the second.

`COc1cc(/C=C/C(=O)O)ccc1OS(=O)(=O)O` and `O=C1NC(=S)S/C1=C/c1ccco1` cannot be ordered by TGI: greater than 100 µM for the first, greater than 100 µM for the second.

`CCC1C(=O)OCc2c1cc1n(c2=O)CCC12OCCO2` (stereo not drawn) gave a TGI greater than 100 µM.

The compounds below were run on COLO 205 colon (assay: inhibition of tumour cell growth, NCI panel, 48 h).

`Cc1c(-c2nc(N)nc(C3CC3)c2C)nc(N)nc1C1CC1` and `COc1ccc2c(c1)[C@@]13CCN4CC5=CCO[C@H]6CC(=O)N2[C@H]1[C@H]6[C@H]5C[C@H]43` cannot be ordered by TGI: greater than 100 µM for the first, greater than 100 µM for the second.

Going from `CC(C)(C)OC(=O)c1ccc(NCc2cc(O)ccc2O)cc1` to `NC(=O)NC(=NCc1ccccc1)NCc1ccccc1`, the TGI rises from 5.48 µM to greater than 100 µM.

`COc1cc(/C=C/C(=O)O)ccc1OS(=O)(=O)O` and `O=C1NC(=S)S/C1=C/c1ccco1` cannot be ordered by TGI: greater than 100 µM for the first, greater than 100 µM for the second.

`CCC1C(=O)OCc2c1cc1n(c2=O)CCC12OCCO2` (stereo not drawn) was tested, and the TGI was greater than 100 µM.

The compounds below were run on EKVX NSCLC (assay: inhibition of tumour cell growth, NCI panel, 48 h).

`Cc1c(-c2nc(N)nc(C3CC3)c2C)nc(N)nc1C1CC1` and `COc1ccc2c(c1)[C@@]13CCN4CC5=CCO[C@H]6CC(=O)N2[C@H]1[C@H]6[C@H]5C[C@H]43` cannot be ordered by TGI: greater than 100 µM for the first, greater than 100 µM for the second.

First: CC(C)(C)OC(=O)c1ccc(NCc2cc(O)ccc2O)cc1
Second: NC(=O)NC(=NCc1ccccc1)NCc1ccccc1
The TGI of the first is lower: 12 µM for the first, greater than 100 µM for the second.

`COc1cc(/C=C/C(=O)O)ccc1OS(=O)(=O)O` and `O=C1NC(=S)S/C1=C/c1ccco1` cannot be ordered by TGI: greater than 100 µM for the first, greater than 100 µM for the second.

Compound `CCC1C(=O)OCc2c1cc1n(c2=O)CCC12OCCO2` (stereo not drawn) has a TGI greater than 100 µM.

These compounds were tested on NCI-H226 lung (assay: inhibition of tumour cell growth, NCI panel, 48 h).

First: Cc1c(-c2nc(N)nc(C3CC3)c2C)nc(N)nc1C1CC1
Second: COc1ccc2c(c1)[C@@]13CCN4CC5=CCO[C@H]6CC(=O)N2[C@H]1[C@H]6[C@H]5C[C@H]43
The TGI of the first is higher: greater than 100 µM for the first, 30.9 µM for the second.

Compared with `CC(C)(C)OC(=O)c1ccc(NCc2cc(O)ccc2O)cc1`, `COc1cc(/C=C/C(=O)O)ccc1OS(=O)(=O)O` is higher in TGI: 8.64 µM for the first, greater than 100 µM for the second.

`CCC1C(=O)OCc2c1cc1n(c2=O)CCC12OCCO2` (stereo not drawn) and `O=C1NC(=S)S/C1=C/c1ccco1` cannot be ordered by TGI: greater than 100 µM for the first, greater than 100 µM for the second.

Each compound was assayed on NCI-H460 lung (assay: inhibition of tumour cell growth, NCI panel, 48 h).

`Cc1c(-c2nc(N)nc(C3CC3)c2C)nc(N)nc1C1CC1` and `COc1ccc2c(c1)[C@@]13CCN4CC5=CCO[C@H]6CC(=O)N2[C@H]1[C@H]6[C@H]5C[C@H]43` cannot be ordered by TGI: greater than 100 µM for the first, greater than 100 µM for the second.

`CC(C)(C)OC(=O)c1ccc(NCc2cc(O)ccc2O)cc1` and `NC(=O)NC(=NCc1ccccc1)NCc1ccccc1` cannot be ordered by TGI: greater than 73.8 µM for the first, greater than 100 µM for the second.

`COc1cc(/C=C/C(=O)O)ccc1OS(=O)(=O)O` and `O=C1NC(=S)S/C1=C/c1ccco1` cannot be ordered by TGI: greater than 100 µM for the first, greater than 100 µM for the second.

For `CCC1C(=O)OCc2c1cc1n(c2=O)CCC12OCCO2` (stereo not drawn), the TGI was greater than 100 µM.

Each compound was assayed on HT29 colon (assay: inhibition of tumour cell growth, NCI panel, 48 h).

`Cc1c(-c2nc(N)nc(C3CC3)c2C)nc(N)nc1C1CC1` and `COc1ccc2c(c1)[C@@]13CCN4CC5=CCO[C@H]6CC(=O)N2[C@H]1[C@H]6[C@H]5C[C@H]43` cannot be ordered by TGI: greater than 100 µM for the first, greater than 100 µM for the second.

Going from `CC(C)(C)OC(=O)c1ccc(NCc2cc(O)ccc2O)cc1` to `NC(=O)NC(=NCc1ccccc1)NCc1ccccc1`, the TGI rises from 33.7 µM to greater than 100 µM.

`COc1cc(/C=C/C(=O)O)ccc1OS(=O)(=O)O` and `O=C1NC(=S)S/C1=C/c1ccco1` cannot be ordered by TGI: greater than 100 µM for the first, greater than 100 µM for the second.

With `CCC1C(=O)OCc2c1cc1n(c2=O)CCC12OCCO2` (stereo not drawn) the TGI was greater than 100 µM.

The compounds below were run on DMS 273 small cell lung (assay: inhibition of tumour cell growth, NCI panel, 48 h).

`CCC1C(=O)OCc2c1cc1n(c2=O)CCC12OCCO2` (stereo not drawn) and `O=C1NC(=S)S/C1=C/c1ccco1` cannot be ordered by TGI: greater than 100 µM for the first, greater than 100 µM for the second.

In the case of `NC(=O)NC(=NCc1ccccc1)NCc1ccccc1`, the TGI is reported as greater than 100 µM.

These compounds were tested on MDA-N (assay: inhibition of tumour cell growth, NCI panel, 48 h).

`Cc1c(-c2nc(N)nc(C3CC3)c2C)nc(N)nc1C1CC1` and `COc1ccc2c(c1)[C@@]13CCN4CC5=CCO[C@H]6CC(=O)N2[C@H]1[C@H]6[C@H]5C[C@H]43` cannot be ordered by TGI: greater than 100 µM for the first, greater than 100 µM for the second.

Going from `CC(C)(C)OC(=O)c1ccc(NCc2cc(O)ccc2O)cc1` to `COc1cc(/C=C/C(=O)O)ccc1OS(=O)(=O)O`, the TGI rises from 16.3 µM to greater than 100 µM.

What follows are compounds tested on 786-0 renal (assay: inhibition of tumour cell growth, NCI panel, 48 h).

`Cc1c(-c2nc(N)nc(C3CC3)c2C)nc(N)nc1C1CC1` and `COc1ccc2c(c1)[C@@]13CCN4CC5=CCO[C@H]6CC(=O)N2[C@H]1[C@H]6[C@H]5C[C@H]43` cannot be ordered by TGI: greater than 100 µM for the first, greater than 100 µM for the second.

Compared with `CC(C)(C)OC(=O)c1ccc(NCc2cc(O)ccc2O)cc1`, `NC(=O)NC(=NCc1ccccc1)NCc1ccccc1` is higher in TGI: 5.38 µM for the first, greater than 100 µM for the second.

`COc1cc(/C=C/C(=O)O)ccc1OS(=O)(=O)O` and `CCC1C(=O)OCc2c1cc1n(c2=O)CCC12OCCO2` (stereo not drawn) cannot be ordered by TGI: greater than 100 µM for the first, greater than 100 µM for the second.

Each compound was assayed on RPMI-8226 leukemia (assay: inhibition of tumour cell growth, NCI panel, 48 h).

`Cc1c(-c2nc(N)nc(C3CC3)c2C)nc(N)nc1C1CC1` and `COc1ccc2c(c1)[C@@]13CCN4CC5=CCO[C@H]6CC(=O)N2[C@H]1[C@H]6[C@H]5C[C@H]43` cannot be ordered by TGI: greater than 100 µM for the first, greater than 100 µM for the second.

Compared with `CC(C)(C)OC(=O)c1ccc(NCc2cc(O)ccc2O)cc1`, `COc1cc(/C=C/C(=O)O)ccc1OS(=O)(=O)O` is higher in TGI: 13 µM for the first, greater than 100 µM for the second.

In the case of `CCC1C(=O)OCc2c1cc1n(c2=O)CCC12OCCO2` (stereo not drawn), the TGI is reported as greater than 100 µM.

The compounds below were run on HCT-116 colon (assay: inhibition of tumour cell growth, NCI panel, 48 h).

`Cc1c(-c2nc(N)nc(C3CC3)c2C)nc(N)nc1C1CC1` and `COc1ccc2c(c1)[C@@]13CCN4CC5=CCO[C@H]6CC(=O)N2[C@H]1[C@H]6[C@H]5C[C@H]43` cannot be ordered by TGI: greater than 100 µM for the first, greater than 100 µM for the second.

Compared with `CC(C)(C)OC(=O)c1ccc(NCc2cc(O)ccc2O)cc1`, `NC(=O)NC(=NCc1ccccc1)NCc1ccccc1` is higher in TGI: 16.1 µM for the first, greater than 100 µM for the second.

`COc1cc(/C=C/C(=O)O)ccc1OS(=O)(=O)O` and `O=C1NC(=S)S/C1=C/c1ccco1` cannot be ordered by TGI: greater than 100 µM for the first, greater than 100 µM for the second.

With `CCC1C(=O)OCc2c1cc1n(c2=O)CCC12OCCO2` (stereo not drawn) the TGI was greater than 100 µM.

What follows are compounds tested on RXF 393 renal (assay: inhibition of tumour cell growth, NCI panel, 48 h).

`Cc1c(-c2nc(N)nc(C3CC3)c2C)nc(N)nc1C1CC1` and `COc1ccc2c(c1)[C@@]13CCN4CC5=CCO[C@H]6CC(=O)N2[C@H]1[C@H]6[C@H]5C[C@H]43` cannot be ordered by TGI: greater than 100 µM for the first, greater than 100 µM for the second.

First: CC(C)(C)OC(=O)c1ccc(NCc2cc(O)ccc2O)cc1
Second: COc1cc(/C=C/C(=O)O)ccc1OS(=O)(=O)O
The TGI of the first is lower: 3.35 µM for the first, greater than 100 µM for the second.

Work on `O=C1NC(=S)S/C1=C/c1ccco1` yielded a TGI greater than 100 µM.

What follows are compounds tested on MDA-MB-231 breast (assay: inhibition of tumour cell growth, NCI panel, 48 h).

`Cc1c(-c2nc(N)nc(C3CC3)c2C)nc(N)nc1C1CC1` and `COc1ccc2c(c1)[C@@]13CCN4CC5=CCO[C@H]6CC(=O)N2[C@H]1[C@H]6[C@H]5C[C@H]43` cannot be ordered by TGI: greater than 100 µM for the first, greater than 100 µM for the second.

Compared with `CC(C)(C)OC(=O)c1ccc(NCc2cc(O)ccc2O)cc1`, `COc1cc(/C=C/C(=O)O)ccc1OS(=O)(=O)O` is higher in TGI: 9.31 µM for the first, greater than 100 µM for the second.

The compounds below were run on SNB-75 CNS (assay: inhibition of tumour cell growth, NCI panel, 48 h).

`Cc1c(-c2nc(N)nc(C3CC3)c2C)nc(N)nc1C1CC1` and `CCC1C(=O)OCc2c1cc1n(c2=O)CCC12OCCO2` (stereo not drawn) cannot be ordered by TGI: greater than 100 µM for the first, greater than 100 µM for the second.

Going from `CC(C)(C)OC(=O)c1ccc(NCc2cc(O)ccc2O)cc1` to `COc1cc(/C=C/C(=O)O)ccc1OS(=O)(=O)O`, the TGI rises from 18.4 µM to greater than 100 µM.

`O=C1NC(=S)S/C1=C/c1ccco1` showed a TGI greater than 100 µM.

What follows are compounds tested on NCI/ADR-RES ovarian (assay: inhibition of tumour cell growth, NCI panel, 48 h).

`Cc1c(-c2nc(N)nc(C3CC3)c2C)nc(N)nc1C1CC1` and `COc1ccc2c(c1)[C@@]13CCN4CC5=CCO[C@H]6CC(=O)N2[C@H]1[C@H]6[C@H]5C[C@H]43` cannot be ordered by TGI: greater than 100 µM for the first, greater than 100 µM for the second.

Going from `CC(C)(C)OC(=O)c1ccc(NCc2cc(O)ccc2O)cc1` to `COc1cc(/C=C/C(=O)O)ccc1OS(=O)(=O)O`, the TGI rises from 12.5 µM to greater than 100 µM.

The compounds below were run on MDA-MB-435 (assay: inhibition of tumour cell growth, NCI panel, 48 h).

`Cc1c(-c2nc(N)nc(C3CC3)c2C)nc(N)nc1C1CC1` and `COc1ccc2c(c1)[C@@]13CCN4CC5=CCO[C@H]6CC(=O)N2[C@H]1[C@H]6[C@H]5C[C@H]43` cannot be ordered by TGI: greater than 100 µM for the first, greater than 100 µM for the second.

Going from `CC(C)(C)OC(=O)c1ccc(NCc2cc(O)ccc2O)cc1` to `COc1cc(/C=C/C(=O)O)ccc1OS(=O)(=O)O`, the TGI rises from 16.1 µM to greater than 100 µM.

The compounds below were run on LXFL 529 NSCLC (assay: inhibition of tumour cell growth, NCI panel, 48 h).

`CCC1C(=O)OCc2c1cc1n(c2=O)CCC12OCCO2` (stereo not drawn) and `O=C1NC(=S)S/C1=C/c1ccco1` cannot be ordered by TGI: greater than 100 µM for the first, greater than 100 µM for the second.

`NC(=O)NC(=NCc1ccccc1)NCc1ccccc1` gave a TGI greater than 100 µM.

These compounds were tested on M19-MEL melanoma (assay: inhibition of tumour cell growth, NCI panel, 48 h).

`CCC1C(=O)OCc2c1cc1n(c2=O)CCC12OCCO2` (stereo not drawn) gave a TGI greater than 100 µM.
